Results taken from patent US6835382B2, “Ii peptide therapeutics to enhance antigen presentation” (University of Massachusetts, priority 1996, dated 2004).
Positions of bridges follow the written chain, without caps; N, C: chain ends. Non-standard residues stand in square brackets, D forms with d. No end group written: not given here. hArg = N=C(N)NCCCC[C@H](N)C(=O)O; Cit = NC(=O)NCCC[C@H](N)C(=O)O

Legend:
[1] = target: T1, murine E^d MHC class II allele (Mus musculus, UniProt P01904+P01915); experiment: simultaneous assay, E^d allele (A20 APC, G28.C9 T hybridoma, HEL106-116; HT-2 [3H]TdR readout); format: cell-based; parameters: The A20 and CH27 B cell lymphoma lines express H-2^d and H-2^k alleles, respectively; endogenous in cells; host or cells: A20 B cell lymphoma (mitomycin C-treated or paraformaldehyde-fixed)
T1 sequence (P01904 26-255): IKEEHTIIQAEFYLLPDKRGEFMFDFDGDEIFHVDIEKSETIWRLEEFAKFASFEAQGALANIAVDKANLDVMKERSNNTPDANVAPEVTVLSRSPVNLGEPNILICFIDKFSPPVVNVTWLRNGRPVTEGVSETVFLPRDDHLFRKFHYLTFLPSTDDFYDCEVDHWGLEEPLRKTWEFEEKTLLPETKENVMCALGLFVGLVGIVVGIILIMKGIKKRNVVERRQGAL
T1 sequence (P01915 27-264 limits assumed): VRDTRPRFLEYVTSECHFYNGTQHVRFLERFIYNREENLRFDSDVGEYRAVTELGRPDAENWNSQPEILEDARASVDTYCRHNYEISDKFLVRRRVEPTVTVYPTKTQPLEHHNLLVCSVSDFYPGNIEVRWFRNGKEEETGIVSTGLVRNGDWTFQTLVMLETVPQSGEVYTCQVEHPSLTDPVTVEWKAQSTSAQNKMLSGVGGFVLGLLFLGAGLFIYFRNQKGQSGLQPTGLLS
In short: (§1)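 Read-out is [3H]TdR incorporation into HT-2 indicator cells exposed to supernatant from a 24 h primary culture. That culture combined mitomycin C-treated APC (5×10^6 cells/mL, 0.025 mg/mL mitomycin C, 20 min, 37° C), peptide, effector compound and T hybridoma, all added at once.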

[2] = system: murine E^k MHC class II allele; experiment: simultaneous assay, E^k allele (CH27 APC, TPc9.1 T hybridoma, THMCC82-103 or PGCC81-104); format: cell-based
In short: as §1

[3] = Table 15, AE peptide 16 μM, supernatant 1:4
[4] = Table 16, AE peptide 4 μM, supernatant 1:8
[5] = Table 18, AE peptide 64 μM, supernatant 1:4

Substance	Times Baseline Response, E^d [1, 4]	Times Baseline Response, E^k [2, 4]	further results
Ac-A[Cit]NKNPK-NH2 [AE351]			Times Baseline Response, E^d [1, 3]: 0.8; Times Baseline Response, E^k [2, 3]: 1.6
Ac-FK HArg MYP Cit-NH2 [AE371]	1.6	1.5	
Ac-LK HArg KYPK-NH2 [AE363]	1.6	1.7	
Ac-LKMKYPK-NH2 [AE362]	1.2	1.3	
Ac-LR HArg KYP Cit-NH2 [AE366]	7.3	49.4	
Ac-LR HArg MYPK-NH2 [AE365]	6.1	20.1	
Ac-LR Orn K HArg PK-NH2 [AE340]			Times Baseline Response, E^d [1, 3]: 46.6; Times Baseline Response, E^k [2, 3]: 39.5
Ac-LRLKYPN-NH2 [AE368]	9.4	11.2	
Ac-LRMKLPK (lactam 4-C) [AE382]			Times Baseline Response, E^d [1, 5]: 1.9; activity in simultaneous assay on E^d, in words ([1]; text on Table 18): relatively inactive; Times Baseline Response, E^k [2, 5]: 18.1; activity in simultaneous assay on E^k, in words ([2]; Tables 2 and 18): moderately active
Ac-LRMKNPF-NH2 [AE350]			Times Baseline Response, E^d [1, 3]: 28.6; Times Baseline Response, E^k [2, 3]: 24.2
Ac-LRMKYPN-NH2 [AE370]	8.7	7.5	
Ac-LRMKYP[Cit]-NH2 [AE364]	14.0	16.6	
Ac-LRMMYP[Cit]-NH2 [AE367]	1.0	6.6	
Ac-L[hArg]LKYPK-NH2 [AE361]	8.2	4.6	
Ac-L[hArg]MKYPK-NH2 [AE360]	5.8	2.5	
cyclic LRMKLPK (bridge (positions not given here); also: cyclic, ring type not given here) [AE381, “head-to-tail” cyclization from the amino-terminus to the carboxyl-terminus of AE114]			Times Baseline Response, E^d [1, 5]: 2.1; activity in simultaneous assay on E^d and E^k, in words ([1]; Tables 12 and 18): weak; Times Baseline Response, E^k [2, 5]: 0.56
